TGI data for two compounds are collected here from PubChem BioAssay (NCI).

SMILES strings stand for the structures.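 Test compounds were applied to cells in 96-well plates for 48 hours at 5 doses. TGI denotes the concentration required for complete inhibition of growth.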

Some test systems named below: 786-0 renal; CAKI-1 renal; HCT-116 colon; HT29 colon; IGROV1 ovarian; K-562 leukemia; KM12 colon; MCF7 breast; NCI-H226 lung; NCI/ADR-RES ovarian; OVCAR-4 ovarian; OVCAR-5 ovarian; SF-268 CNS; SK-OV-3 ovarian; SNB-19 CNS; SW-620 colon; T-47D breast.
Test in all cases: DTP human tumour cell line panel, 48 h

For orientation: TGI means the concentration at which net growth stops.

`CC(=O)n1cc(C2CC23N=C(c2ccccc2)OC3=O)c2ccccc21` (centres undefined): the TGI in the assay on 786-0 renal came to 33.5 µM; in the assay on CAKI-1 renal it was 36 µM; in the assay with HCT-116 colon it was 27.9 µM; in the assay on HT29 colon it was 39.9 µM; in the assay on IGROV1 ovarian, 38.3 µM; in the assay on K-562 leukemia, 77.6 µM. Further, the TGI with KM12 colon was 48.7 µM; with MCF7 breast, 42.9 µM; in the assay with NCI-H226 lung, 44.5 µM; with NCI/ADR-RES ovarian, more than 56 µM; in the assay with OVCAR-4 ovarian it was 42.4 µM; in the assay on OVCAR-5 ovarian, 49.7 µM. The TGI in the assay with SF-268 CNS is 46.3 µM; in the assay on SK-OV-3 ovarian, more than 100 µM; in the assay with SNB-19 CNS, more than 89.7 µM; in the assay on SW-620 colon it was 56.7 µM; in the assay on T-47D breast, more than 100 µM.

For `COC(=O)[C@H](Cc1c[nH]c2ccccc12)NP(=O)(OCCC#N)OCC1OC(n2cc(C)c(=O)[nH]c2=O)CC1N=[N+]=[N-]` (some centres undefined), the concentration for total growth inhibition (TGI) with 786-0 renal, in the assay on CAKI-1 renal, with HCT-116 colon, in the assay on HT29 colon, in the assay with IGROV1 ovarian and with K-562 leukemia was more than 100 µM throughout. Further, the TGI with KM12 colon, with MCF7 breast, with NCI-H226 lung, with NCI/ADR-RES ovarian, in the assay with OVCAR-4 ovarian and with OVCAR-5 ovarian was more than 100 µM in each case. For the same compound, the TGI in the assay on SF-268 CNS, in the assay with SK-OV-3 ovarian, in the assay on SNB-19 CNS, with SW-620 colon and in the assay with T-47D breast was more than 100 µM in each case.
